Patent publication EP4729529A1, “PREPARATION OF PEPTIDE INHIBITOR OF INTERLEUKIN-23 RECEPTOR AND USE THEREOF” (Xizang Haisco Pharmaceutical Co., Ltd., priority 2023, dated 2024)
Starred links: 1 amine or outer side, 2 acyl side, 3 side chain; linkers in the order of their positions; H or OH if unused. Positions of bridges follow the written chain, without caps; N, C: chain ends. Non-standard residues stand in square brackets, D forms with d. Residues, ends and D or L forms follow the SMILES beside them. Groups on a side chain read outwards from the residue. *: point of attachment. Phe(4-OC2H4NH2,2,3-(CH2)3) = NCCOc1ccc(C[C@H](N)C(=O)O)c2c1CCC2; Trp(7-cPr) = N[C@@H](Cc1c[nH]c2c(C3CC3)cccc12)C(=O)O; X4 = COCCOCCOCCOCCOCCOCCOCCOCCOCCOCCOCCOCCOCC(=O)*; Trp(7-Me) = Cc1cccc2c(C[C@H](N)C(=O)O)c[nH]c12; X6 = COCCOCCOCCOCCOCCOCCOCCOCCOCCOCC(=O)*; γGlu = O=C(O)[C@H](CCC(=O)[*:2])N[*:1]; 2Nal = N[C@@H](Cc1ccc2ccccc2c1)C(=O)O; Thp(SO2) = NC1(C(=O)O)CCS(=O)(=O)CC1; AEF = NCCOc1ccc(C[C@H](N)C(=O)O)cc1; Adipoyl = O=C(CCCCC(=O)[*:2])[*:1]; 3Pal = N[C@@H](Cc1cccnc1)C(=O)O; Pen = CC(C)(S)[C@H](N)C(=O)O; Thp = NC1(C(=O)O)CCOCC1; AEEA = NCCOCCOCC(=O)O; AEA = NCCOCC(=O)O; Sar = CNCC(=O)O

target: T1, IL-23α/IL-12β and IL-23R (Homo sapiens, UniProt Q5VWK5); experiment: IL-23α/IL-12β and IL-23R binding assay (TR-FRET/HTRF); details: inhibition of the binding of IL-23α/IL-12β to IL-23R, TR-FRET; both proteins 0.3 nM
T1 construct: purchased ACRO ILR-H82F3 (IL-23R); ILB-H52W5 (IL-23α/IL-12β)
T1 sequence (Q5VWK5 24-353 limits assumed): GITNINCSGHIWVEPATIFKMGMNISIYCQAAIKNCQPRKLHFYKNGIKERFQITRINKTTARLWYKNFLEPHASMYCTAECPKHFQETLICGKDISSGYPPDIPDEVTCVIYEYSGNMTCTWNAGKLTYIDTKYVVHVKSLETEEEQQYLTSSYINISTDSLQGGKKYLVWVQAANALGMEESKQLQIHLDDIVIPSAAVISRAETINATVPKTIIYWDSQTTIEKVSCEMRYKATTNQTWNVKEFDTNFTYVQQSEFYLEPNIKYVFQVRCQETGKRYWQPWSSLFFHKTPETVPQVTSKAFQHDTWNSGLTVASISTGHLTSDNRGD
Description: 1. IL-23α/IL-12β and IL-23R binding assay
Compounds were tested for their inhibition on the binding of IL-23α/IL-12β to IL-23R by the TR-FRET method. Solutions of proteins IL-23α/IL-12β (ACRO, Cat# ILB-H52W5) and IL-23R (ACRO, Cat# ILR-H82F3) were prepared in reaction buffer PPI (PerkinElmer, Cat# 61DB10RDF). The final concentrations of IL-23α/IL-12β and IL-23R in the reaction mixture were both 0.3 nM. Positive reference Guselkumab was 3-fold diluted from an initial concentration of 30 nM, with 10 doses. 0.1 µL of the positive reference diluted in the reaction buffer was delivered to a 384-well plate (Grenier, Cat# 784075) by the acoustic liquid delivery technique (Echo 655), and the plate was centrifuged at 1000 rpm for 1 minute. 2.5 µL of IL-23α/IL-12β solution was transferred into the 384-well reaction plate, and the plate was centrifuged at 1000 rpm for 1 minute, and incubated at 25°C for 60 minutes. 2.5 µL of IL-23R solution was transferred into the 384-well reaction plate, and the plate was centrifuged at 1000 rpm for 1 minute. 5 µL of Streptavidin-Tb cryptate and Anti 6HIS-d2 detection mixture was transferred into the 384-well reaction plate, and the plate was centrifuged at 1000 rpm for 1 minute, and incubated at 25°C for 60 minutes. Finally, the HTRF signal (Ratio 665/620 nm) was read with a BMG high-throughput drug screening multifunctional microplate reader. IC50 values were obtained by nonlinear regression curve fitting using GraphPad Prism software.

First: CC(=O)NCCCC[C@@H]1NC(=O)[C@H](Cc2c[nH]c3c(C)cccc23)NC(=O)[C@H]([C@@H](C)O)NC(=O)[C@H](Cc2c[nH]cn2)NC(=O)[C@H]2NC(=O)COCCNC(=O)CC[C@@H](C(=O)N[C@@H](CC(N)=O)C(=O)N[C@@H](Cc3cccnc3)C(=O)N(C)CC(N)=O)NC(=O)C3(CCOCC3)NC(=O)[C@H](Cc3ccc4ccccc4c3)NC(=O)[C@H](Cc3ccc(OCCN)cc3)NC(=O)[C@@H](NC1=O)C(C)(C)SSC2(C)C [Compound 38] ([AEA][Pen]HT[Trp(7-Me)]K(Ac)[Pen][AEF][2Nal][Thp]EN[3Pal][Sar]-NH2; disulfide 2-7 (inferred); lactam N-11 (inferred))
Second: CC(=O)N[C@@H](CCC(=O)NCCOCCOCC(=O)NCCOCCOCC(=O)NCCCC[C@@H]1NC(=O)[C@H](Cc2c[nH]c3c(C4CC4)cccc23)NC(=O)[C@H]([C@@H](C)O)NC(=O)[C@H](Cc2c[nH]cn2)NC(=O)[C@@H](NC(C)=O)C(C)(C)SSC(C)(C)[C@@H](C(=O)N[C@@H](Cc2ccc(OCCN)c3c2CCC3)C(=O)N[C@@H](Cc2ccc3ccccc3c2)C(=O)NC2(C(=O)N[C@@H](CCC(=O)O)C(=O)N[C@@H](CC(N)=O)C(=O)N[C@@H](Cc3cccnc3)C(=O)N(C)CC(N)=O)CCS(=O)(=O)CC2)NC1=O)C(=O)O [Compound 47] (Ac-[Pen]HT[Trp(7-cPr)]K([AEEA-AEEA-γGlu-Ac])[Pen][Phe(4-OC2H4NH2,2,3-(CH2)3)][2Nal][Thp(SO2)]EN[3Pal][Sar]-NH2; disulfide 1-6)
The IC50 of the first is 2.3-fold higher: 212 pM for the first, 93 pM for the second.

Going from `COCCOCCOCCOCCOCCOCCOCCOCCOCCOCC(=O)N[C@@H]1C(=O)N[C@@H](Cc2c[nH]cn2)C(=O)N[C@@H]([C@@H](C)O)C(=O)N[C@@H](Cc2c[nH]c3c(C4CC4)cccc23)C(=O)N[C@@H](CCC(N)=O)C(=O)N[C@H](C(=O)N[C@@H](Cc2ccc(OCCN)c3c2CCC3)C(=O)N[C@@H](Cc2ccc3ccccc3c2)C(=O)NC2(C(=O)N[C@@H](CCC(=O)O)C(=O)N[C@@H](CC(N)=O)C(=O)N[C@@H](Cc3cccnc3)C(=O)N(C)CC(N)=O)CCS(=O)(=O)CC2)C(C)(C)SSC1(C)C` [Compound 39] (X6-[Pen]HT[Trp(7-cPr)]Q[Pen][Phe(4-OC2H4NH2,2,3-(CH2)3)][2Nal][Thp(SO2)]EN[3Pal][Sar]-NH2; disulfide 1-6) to `COCCOCCOCCOCCOCCOCCOCCOCCOCCOCCOCCOCCOCC(=O)N[C@@H]1C(=O)N[C@@H](Cc2c[nH]cn2)C(=O)N[C@@H]([C@@H](C)O)C(=O)N[C@@H](Cc2c[nH]c3c(C4CC4)cccc23)C(=O)N[C@@H](CCC(N)=O)C(=O)N[C@H](C(=O)N[C@@H](Cc2ccc(OCCN)c3c2CCC3)C(=O)N[C@@H](Cc2ccc3ccccc3c2)C(=O)NC2(C(=O)N[C@@H](CCC(=O)O)C(=O)N[C@@H](CC(N)=O)C(=O)N[C@@H](Cc3cccnc3)C(=O)N(C)CC(N)=O)CCS(=O)(=O)CC2)C(C)(C)SSC1(C)C` [Compound 46] (X4-[Pen]HT[Trp(7-cPr)]Q[Pen][Phe(4-OC2H4NH2,2,3-(CH2)3)][2Nal][Thp(SO2)]EN[3Pal][Sar]-NH2; disulfide 1-6), the IC50 rises from 57 pM to 95 pM (1.7-fold). The first is the more potent here.

In the case of `C[C@@H](O)[C@@H]1NC(=O)[C@H](Cc2c[nH]cn2)NC(=O)[C@@H](NC(=O)COCCOCCNC(=O)COCCOCCNC(=O)CC[C@H](NC(=O)CCCCC(=O)O)C(=O)O)C(C)(C)SSC(C)(C)[C@@H](C(=O)N[C@@H](Cc2ccc(OCCN)c3c2CCC3)C(=O)N[C@@H](Cc2ccc3ccccc3c2)C(=O)NC2(C(=O)N[C@@H](CCC(=O)O)C(=O)N[C@@H](CC(N)=O)C(=O)N[C@@H](Cc3cccnc3)C(=O)N(C)CC(N)=O)CCS(=O)(=O)CC2)NC(=O)[C@H](CCC(N)=O)NC(=O)[C@H](Cc2c[nH]c3c(C4CC4)cccc23)NC1=O` [Compound 48] ({Adipoyl-γGlu-AEEA-AEEA}-[Pen]HT[Trp(7-cPr)]Q[Pen][Phe(4-OC2H4NH2,2,3-(CH2)3)][2Nal][Thp(SO2)]EN[3Pal][Sar]-NH2; disulfide 1-6), the IC50 is reported as 58 pM.
